The source of these data is patent US10294202B2, “Pyrrolidinones as herbicides” (FMC Corporation, priority 2013, dated 2019).

The subject of one test is sunflower. Kind of test: Test C pre-/postemergence herbicide test. The format is in vivo, Helianthus annuus. The note with it: Preemergence. An excerpt:
Seeds of plant species selected from blackgrass (Alopecurus myosuroides), ryegrass, Italian (Italian ryegrass, Lolium multiflorum), wheat (winter wheat, Triticum aestivum), galium (catchweed bedstraw, Galium aparine), corn (Zea mays), crabgrass, large (large crabgrass, Digitaria sanguinalis), foxtail, giant (giant foxtail, Setaria faberii), johnsongrass (Sorghum halepense), lambsquarters (Chenopodium album), morningglory (Ipomoea coccinea), nutsedge, yellow (yellow nutsedge, Cyperus esculentus), pigweed (Amaranthus retroflexus), ragweed (common ragweed, Ambrosia elatior), soybean (Glycine max), barnyardgrass (Echinochloa crus-galli), oilseed rape (Brassica napus), waterhemp (common waterhemp, Amaranthus rudis), kochia (Kochia scoparia), oat, wild (wild oat, Avena fatua), surinam grass (Brachiaria decumbens), foxtail, green (green foxtail, Setaria viridis), goosegrass (Eleusine indica), bromegrass, downy (downy bromegrass, Bromus tectorum), nightshade (eastern black nightshade, Solanum ptycanthum), cocklebur (common cocklebur, Xanthium strumarium), cupgrass, woolly (woolly cupgrass, Eriochloa villosa), bermudagrass (Cynodon dactylon), sunflower, (common oilseed sunflower, Helianthus annuus), Russian thistle (Salsola kali) and velvetleaf (Abutilon theophrasti) were planted into a blend of loam soil and sand and treated preemergence with test chemicals formulated in a non-phytotoxic solvent mixture which included a surfactant. At the same time, plants selected from these crop and weed species and also barley (winter barley, Hordeum vulgare), […]), chickweed (common chickweed, Stellaria media), deadnettle (henbit deadnettle, Lamium amplexicaule), and canarygrass (littleseed canarygrass, Phalaris minor) were planted in pots containing Redi-Earth® planting medium (Scotts Company, 14111 Scottslawn Road, Marysville, Ohio 43041) comprising spaghnum peat moss, vermiculite, wetting agent and starter nutrients and treated with postemergence applications of test chemicals formulated in the same manner. Plants ranged in height from 2 to 18 cm (1- to 4-leaf stage) for postemergence treatments. Treated plants and controls were maintained in a greenhouse for 13 to 15 days, after which time all species were compared to controls and visually evaluated. Plant response ratings, summarized in Table C, are based on a scale of 0 to 100 where 0 is no effect and 100 is complete control. A dash (-) response means no test result.

In the next test the test system is sprangletop, Brdd. Kind of test: Test F flood (paddy) test. It is filed as in vivo, Leptochloa fascicularis. The note with it: 21 d, scale 0-100. In short, it runs like this:
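Visual injury ratings (0 no effect to 100 complete control) were taken 21 d after treatment against untreated controls. Compounds went directly into paddy water held 3 cm above soil, applied at the 2.0–2.5-leaf stage in sterilized Tama silt loam under a 30/27 °C, 16-h greenhouse regime.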

The next test has as its system windgrass. Kind of test: Test D pre-/postemergence herbicide test. The format is in vivo, Apera spica-venti. The settings on record: Postemergence, Windgrass, scale 0 to 100. In short, it runs like this: (§1)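 Seeds sown in silt loam were sprayed preemergence with test chemicals in a non-phytotoxic solvent mixture with surfactant. Postemergence plants grown in peat/vermiculite medium were treated at 2–18 cm (1- to 4-leaf stage). After 7 to 21 days in a controlled environment, injury was rated visually versus controls, 0 (no effect) to 100 (complete control).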

Another test has as its system lambsquarters. Briefly: Test D pre-/postemergence herbicide test. It is filed as in vivo, Chenopodium album. The note with it: Postemergence, Lambsquarters, scale 0 to 100. Summed up: as §1
For a further test, the system named is oat, wild. Briefly: Test D pre-/postemergence herbicide test. It is filed as in vivo, Avena fatua. The settings on record: Postemergence, Oat, Wild, scale 0 to 100. Summed up: as §1
The mark [1] stands for this setting: 125 g ai/ha, scale 0 to 100 (0 no effect, 100 complete control).

For the compound `O=C1NCCC1C(=O)N(c1ccc(F)c(F)c1)c1ccccc1F` (centres unmarked) [Compound 5, N-(3,4-difluorophenyl)-N-(2-fluorophenyl)-2-oxo-3-pyrrolidinecarboxamide], the “Plant response rating, Sunflower” value amounted to 0 with sunflower (62 g ai/ha, scale 0 to 100) and 0 in the test on sunflower (setting [1]). Further, the “Plant response rating, Sprangletop, Brdd.” value is listed as 85 in the test on sprangletop, Brdd. (125 g ai/ha); 85 with sprangletop, Brdd. (250 g ai/ha); 85 with sprangletop, Brdd. (500 g ai/ha); 85 in the test on sprangletop, Brdd. (1000 g ai/ha); 90 in the test with sprangletop, Brdd. (2000 g ai/ha).
As to `O=C1NCC(c2ccc(F)c(F)c2)C1C(=O)Nc1cccc(F)c1F` (centres unmarked) [Compound 17, N-(2,3-difluorophenyl)-4-(3,4-difluorophenyl)-2-oxo-3-pyrrolidinecarboxamide], the Plant response rating in the test on windgrass (16 g ai/ha), with windgrass (31 g ai/ha), in the test with windgrass (62 g ai/ha), with windgrass (125 g ai/ha), in the test on windgrass (250 g ai/ha) and with lambsquarters (16 g ai/ha) was 0 in each case. For the same compound, the Plant response rating in the test with lambsquarters (31 g ai/ha) is reported as 0; with lambsquarters (62 g ai/ha), 0; in the test with lambsquarters (125 g ai/ha), 20; in the test on lambsquarters (250 g ai/ha), 40; in the test on oat, wild (16 g ai/ha), 0; in the test on oat, wild (31 g ai/ha) it was 0. Also, the Plant response rating with oat, wild (62 g ai/ha) is on record as 0; with oat, wild (125 g ai/ha), 0; in the test on oat, wild (250 g ai/ha) it was 0. Also, the “Plant response rating, Sunflower” value in the test on sunflower (62 g ai/ha, scale 0 to 100) was 10; with sunflower (setting [1]) it was 20. For the same compound, the “Plant response rating, Sprangletop, Brdd.” value in the test on sprangletop, Brdd. (125 g ai/ha) turned out to be 85; in the test on sprangletop, Brdd. (250 g ai/ha), 85; in the test on sprangletop, Brdd. (500 g ai/ha), 85; in the test with sprangletop, Brdd. (1000 g ai/ha), 85; in the test with sprangletop, Brdd. (2000 g ai/ha), 100.
